Assay [1] concerns the target Human immunodeficiency virus type 1 reverse transcriptase (Human immunodeficiency virus 1, UniProt Q72547). As to the kind of experiment: Inhibition of wild-type HIV-1 Reverse transcriptase.
For assay [2], the system named is Human immunodeficiency virus 1. Description: Antiviral activity against HIV-1 virus. The format is functional. The note with it: read-out: ED50 (the source's name).

A word on the IC50: it is the concentration that gives 50% inhibition. A lower IC50 goes with inhibition by little substance. For `COc1cccc(C(=O)CC/N=C(\S)Nc2ccc(Br)cn2)c1`, in assay [1], the midpoint of inhibition, the IC50, lay at 0.08 µM. In assay [2], the EC50 was 0.911 µM.
Take `O=S(=O)(NCCc1ccccc1)Nc1cncc(Cl)c1`: in assay [1], the IC50 was above 10 µM. For the same molecule, the EC50 in assay [2] is above 100 µM.
The matching figures for `N=C(Nc1ccc(Br)cn1)N[C@@H]1C[C@@H]1c1ccccc1`: 0.18 µM and 1.2 µM.
Regarding `O=C(CCNC(=S)Nc1ccc(Br)cn1)c1ccccc1Cl`, the IC50 in assay [1] is 0.01 µM. Further, the EC50 in assay [2] worked out at 0.1 µM.
In the same order, the values of `COc1ccccc1C(=O)CCNC(=S)Nc1ccc(Br)cn1` are 0.003 µM and 0.076 µM.
Molecule `O=C(CC/N=C(\S)Nc1ccc(Br)cn1)c1ccccc1F` displayed an IC50 in assay [1] of 0.004 µM. Further, the EC50 in assay [2] was found to be 0.009 µM.
In the same order, the values of `O=C(CC/N=C(\S)Nc1ccc(Br)cn1)c1cc(F)ccc1F` are below 0.025 µM and 0.067 µM.
The matching figures for `COc1ccccc1CCN=C(NC#N)Nc1nccs1`: above 10 µM and above 100 µM.
`O=C(CCNC(=S)Nc1ccc(Br)cn1)c1c(F)cccc1F` gave an IC50 in assay [1] of 0.003 µM. In addition, the EC50 in assay [2] was 0.05 µM.
With `COc1ccccc1CCNC(=S)Nc1nccs1`, in assay [2], the EC50 came out at 0.4 µM.
In turn, `CCOc1ccc(F)c(CC/N=C(\N)Nc2ccc(Br)cn2)c1Cl` gave an IC50 in assay [1] of 0.4 µM. In addition, the EC50 in assay [2] is 1 µM.
Take `CCOc1ccc(F)c(CCNC(=S)Nc2ccc(Br)cn2)c1Cl` [THIOUREA, N-(5-BROMO-2-PYRIDINYL)-N'-(2-(2-CHLORO-3-ETHOXY-6-FLUOROPHENYL)ETHYL)-]: the EC50 in assay [2] stood at 0.007 µM.
Regarding `O=C(NCCC(=O)c1ccccc1F)Nc1ccc(Br)cn1`, the IC50 in assay [1] amounted to 0.054 µM. For the same molecule, in assay [2], the EC50 stood at 0.201 µM.
In assay [1], `O=C(CC/N=C(\S)Nc1ccc(Cl)cn1)c1c(F)cccc1F` registered an IC50 of 0.006 µM. The EC50 in assay [2] was 0.028 µM.
In the same order, the values of `S=C(Nc1ccc(Br)cn1)N[C@@H]1C[C@@H]1c1ccccc1` are 0.008 µM and 0.02 µM.
As to `Fc1cccc(F)c1CC/N=C(\S)Nc1ccc(Br)cn1`, the EC50 in assay [2] was found to be 0.01 µM.
For `O=C(CCNC(=S)Nc1ccc(Br)cn1)c1ccccc1`, the IC50 in assay [1] was below 0.027 µM. The EC50 in assay [2] was determined as 0.036 µM.
With `S=C(NCCc1ccccc1)Nc1ccc(Cl)cn1`, the 50% inhibitory concentration (IC50) in assay [1] came to 0.003 µM. Further, in assay [2], the EC50 stood at 0.03 µM.
Turning to `CCOc1ccc(F)c(CCNC(=O)Nc2ccc(Br)cn2)c1Cl`, in assay [2], the EC50 stood at 0.05 µM.
In assay [1], `N#CN/C(=N\c1ccc(Cl)cn1)NCCc1ccccc1` registered an IC50 above 10 µM. The EC50 in assay [2] is above 100 µM.
On to `O=C(CC/N=C(\S)Nc1ccc(Br)cn1)c1ccc(F)cc1`, for which, in assay [1], 0.047 µM corresponded to half-maximal inhibition (IC50). Further, the EC50 in assay [2] was 0.3 µM.

Source of the values: ChEMBL document CHEMBL1133379, “Bioisosteric modification of PETT-HIV-1 RT-inhibitors: synthesis and biological evaluation” (Bioorg Med Chem Lett, 2000).
